The nature of data set [1]: Red blood cell binding, mouse whole blood. Format: in vitro ADME. The note with it: 30 minutes at 37°C, 500 ng/ml. On the procedure: (§1) Compounds, including one positive control, are assessed for red blood cell (RBC) uptake, using a modified procedure based on the protocol reported in Sun, J.X.S., et al. High-performance liquid chromatographic analysis, plasma protein binding and red blood cell partitioning of phenprobamate. Biopharmaceutics and Drug Disposition, 8 (1987) 341-351.
(§2) Briefly, RBC uptake is evaluated by comparison of the levels in spiked plasma (n=3) and plasma isolated from spiked whole blood (n=3). Compounds are incubated with human and mouse whole blood, respectively, for 30 minutes at 37°C using a nominal concentration of 500 ng/ml. Following centrifugation, the plasma is removed and submitted for analysis. Each compound is also spiked into blank plasma at a nominal concentration of 500 ng/ml, and submitted for analysis. Levels in the two plasma samples (Cp' and Cp in the equation below) and the blood hematocrit are used to determine the red blood cell to plasma ratio (Crbc/Cp). (Crbc)/(Cp) = (Cpʹ)/(Cp•H)-((1-H))/(H) [formula] In equation 1, Cp' is the level of drug in the spiked "blank" plasma, Cp is the level of drug in the plasma of spiked whole blood, and H is the hematocrit. The hematocrit values are determined as 0.4 for human whole blood and 0.41 for mouse whole blood. The samples are analyzed with ESI LC/MS, using positive ion detection with an internal standard.
(§3) The red blood cell to plasma ratio is determined for each compound using equation 1. Tables 6 and 7 summarize the respective mean Crbc/Cp values and standard deviations for mouse and human whole blood, respectively, in descending order based on the red blood cell to plasma ratio, where"*" denotes Positive Control, and "ND" denotes Not Determined. MDL 108552 is included as a positive control for red blood cell uptake. Table 6. Red Blood Cell to Plasma Ratio for compounds in mouse whole blood

The subject of the next data set is PC-3. Briefly: In vitro proliferation assay (MTT), PC-3. Format: cell-based, human. The note with it: Homo sapiens. In outline:
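IC50 values come from absorbance at 570 nm after MTT staining of cells grown with compound for 3 days. Seeding density was 1000 to 2500 cells/well, depending on the line.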

A further data set is described as follows: in vivo. The note with it: male, Hsd:ICR (CD-1), mouse, plasma.
Data set [2] in a line: Red blood cell binding, human whole blood. Format: in vitro ADME. The note with it: 30 minutes at 37°C, 500 ng/ml. Here is the method: as §1, §2, §3
The next data set relates to NCI-H460. Briefly: In vitro proliferation assay (MTT), NCI-H460. The note with it: Homo sapiens. Format: cell-based. In outline:
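Tetrazolium (MTT) proliferation test following a 3-day treatment with compound. Read-out is optical density at 570 nm after DMSO solubilization.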

The next data set has as its target cdk1/cyclin B (Homo sapiens, UniProt P06493). Briefly: Cyclin-dependent kinase assay, cdk1/cyclin B. Particulars: CDK1 IC50, nM, Histone H1, 10 µM ATP.
Setting [3] is: PC-3, read-out: PC-3 Prostate (IC50 µM).
[4] abbreviates: NCI-H460, read-out: H-460 Lung (IC50 µM).
Setting [5] is: PC-3, MTT assay, value (SD, n) where given, read-out: PC-3 Prostate (IC50 µM).
Setting [6] is: NCI-H460, MTT assay, value (SD, n) where given, read-out: H-460 Lung (IC50 µM).

“And” between values parts separate entries of the source, which are not always exact repeats. Identical values can stand only once. Like-named read-outs stand apart in the source and are kept apart here.

Chain of cdk1/cyclin B (P06493 whole entry): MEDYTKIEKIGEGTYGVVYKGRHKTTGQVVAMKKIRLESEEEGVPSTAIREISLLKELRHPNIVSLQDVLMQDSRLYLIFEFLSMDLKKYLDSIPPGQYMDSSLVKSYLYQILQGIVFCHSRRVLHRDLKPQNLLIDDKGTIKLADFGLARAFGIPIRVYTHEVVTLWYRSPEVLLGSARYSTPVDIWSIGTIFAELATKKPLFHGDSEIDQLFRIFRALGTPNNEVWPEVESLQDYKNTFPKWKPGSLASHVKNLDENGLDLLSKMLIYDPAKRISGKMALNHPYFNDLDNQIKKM
Chain of cdk1/cyclin B (P14635 whole entry partner): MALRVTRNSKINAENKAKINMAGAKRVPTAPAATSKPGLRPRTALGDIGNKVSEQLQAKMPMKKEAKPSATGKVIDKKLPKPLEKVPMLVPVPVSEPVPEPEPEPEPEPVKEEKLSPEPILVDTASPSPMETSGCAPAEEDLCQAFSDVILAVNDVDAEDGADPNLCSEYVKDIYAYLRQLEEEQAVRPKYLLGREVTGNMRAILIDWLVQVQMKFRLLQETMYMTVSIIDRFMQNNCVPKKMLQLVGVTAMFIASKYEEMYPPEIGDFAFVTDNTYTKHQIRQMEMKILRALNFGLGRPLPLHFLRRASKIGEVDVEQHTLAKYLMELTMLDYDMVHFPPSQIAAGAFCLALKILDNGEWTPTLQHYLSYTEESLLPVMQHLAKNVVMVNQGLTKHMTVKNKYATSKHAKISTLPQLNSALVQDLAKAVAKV
Description for in vivo: Male mice are given single intravenous cassette doses of CDK inhibitor compounds.
Doses are adjusted for the weight of the individual dihydrochloride and trihydrochloride salts. The compounds are stored desiccated within a closed cabinet at room temperature before use. Dose levels are prepared on the morning of each study.
A single intravenous cassette dose (18 or 15 mg/kg free base) is administered. For each compound, this is equivalent to a dose of approx. 3 mg/kg free base. […] The dose is administered at a volume of 10 ml/kg (total volume of approximately 0.25 ml/animal).
Male mice (Hsd:ICR (CD-1® SD®), Harlan), each weighing approximately 20 - 30 g at the start of the study. […] Water is available ad libitum throughout the study.
Dose Administration and Sample Collection: • A single cassette dose of 5-6 compounds is administered by bolus injection into the tail vein over a 10 - 15-second period. […] Whole blood (approximately 0.6 ml/sample) is obtained by cardiac puncture and transferred to 3 ml glass tubes containing 45 U sodium heparin.
Sample Processing: Plasma: Whole blood is centrifuged at approximately 3,200 rpm for 10 min at approximately 5°C and the plasma (approx. 0.3 ml/sample) is transferred to chilled plastic vials and stored at approx. -70°C until bioanalysis.
Sample Analysis: Concentrations of each test article in plasma are quantitated by a non-validated method based on LC/MS using the following protocol.
Samples are removed from the freezer, allowed to thaw at room temperature, and vortexed to insure complete homogenization prior to sample manipulation. Samples are then prepared according to the following scheme: • 1. transfer 48 µL of plasma (blank mouse sample) into a 12 x 75 mm test tube. • 2. add 12 µL of working standard to the blank plasma for standard curve preparation. • 3. […] Inject 25 µL on LC/MS.
Data Analysis: Concentrations of Compounds in plasma of individual animals are determined by bioanalytics. […] Statistical analyses are limited to simple expressions of variation (mean and standard deviation). The plasma AUC (area-under-curve) is determined by the linear trapezoidal rule. […] All PK parameters are determined by noncompartmental methods using WinNonlin version 3.0 (Pharsight Corp). Plasma vs. time profiles are prepared by Sigma Plot (SPSS, Inc.).

On to `Cl.Cl.N[C@H]1CC[C@H](Nc2nc(NC3CCN(C(=O)Oc4ccc(Br)cc4)CC3)c3ncn(C4CCCC4)c3n2)CC1` [compound 81, trans-4-[2-(4-Amino-cyclohexylamino)-9-cyclopentyl-9H-purin-6-ylamino]-piperidine-1-carboxylic acid 4-bromo-phenyl ester dihydrochloride], for which the “Mean Red Blood Cell to Plasma Ratio” value in data set [1] (dihydrochloride) is 3.3 and 4.5. The 50% inhibitory concentration (IC50) in the data set on PC-3 (setting [3]) was 0.12 µM. In the data set “in vivo” (iv, 3 mg/kg), this molecule gave a total exposure AUC(0-inf) of 660 ng·h/mL, a peak concentration (Cmax) of 1770 ng/mL and a half-life of 1.7 h. In “in vivo” (iv, 18 mg/kg), this molecule yielded a concentration at 0.083 h of 1770 ± 384 ng/mL, a concentration at 0.25 h of 394 ± 142 ng/mL, a concentration at 0.5 h of 164 ± 47.2 ng/mL and a concentration at 1 h of 65.3 ± 10 ng/mL. Further, in the data set “in vivo” (iv, 18 mg/kg), the concentration at 3 h is 12.7 ± 3.4 ng/mL, the concentration at 6 h is 5.4 ± 1.5 ng/mL and the concentration at 8 h was found to be 3.5 ± 0.9 ng/mL. Also, the “Mean Red Blood Cell to Plasma Ratio” value in data set [2] was determined as 5.3. In addition, the concentration for half-maximal inhibition (IC50) in the data set on NCI-H460 (setting [4]) is 0.07 µM. Besides, the half-inhibitory concentration (IC50) at cdk1/cyclin B stood at 16 nM.

As for `Cl.Cl.N[C@H]1CC[C@H](Nc2nc(NC3CCN(C(=O)Nc4ccc(C(F)(F)F)cc4)CC3)c3ncn(C4CCCC4)c3n2)CC1` [compound 149, trans-4-[2-(4-Amino-cyclohexylamino)-9-cyclopentyl-9H-purin-6-ylamino]-piperidine-1-carboxylic acid (4-trifluoromethyl-phenyl)-amide dihydrochloride], the “Mean Red Blood Cell to Plasma Ratio” value in data set [1] amounted to 3.4. Also, the IC50 with PC-3 (setting [5]) came out at 0.26 µM. In addition, in “in vivo” (intravenous, 3 mg/kg), the concentration at 0.083 h stood at 3110 ± 703 ng/mL, the concentration at 0.25 h is 419 ± 69.8 ng/mL, the concentration at 0.5 h was found to be 133 ± 10.2 ng/mL and the concentration at 1 h is 59.8 ± 17.3 ng/mL. In “in vivo” (intravenous, 3 mg/kg), this molecule yielded a concentration at 3 h of 15.5 ± 4.8 ng/mL, a concentration at 6 h of 4.1 ± 2.1 ng/mL and a concentration at 8 h of 5.4 ± 0.5 ng/mL. Further, in “in vivo” (iv, 3 mg/kg), the total exposure AUC(0-inf) is 1020 ng·h/mL, the Cmax came to 3110 ng/mL and the half-life was 1.6 h. For the same molecule, the “Mean Red Blood Cell to Plasma Ratio” value in data set [2] is recorded as 2.8. The IC50 in the data set on NCI-H460 (setting [6]) is 0.32 µM. The molecule further registered an IC50 at cdk1/cyclin B of 30 nM.

`Cl.Cl.N[C@H]1CC[C@H](Nc2nc(NC3CCN(S(=O)(=O)c4ccc(F)cc4)CC3)c3ncn(C4CCCC4)c3n2)CC1` [compound 106, trans-N^2-(4-Amino-cyclohexyl)-9-cyclopentyl-N^6-[1-(4-fluoro-benzenesulfonyl)-piperidin-4-yl]-9H-purine-2,6-diamine dihydrochloride]: the “Mean Red Blood Cell to Plasma Ratio” value in data set [1] stood at 3.0. Moreover, in the data set on PC-3 (setting [5]), the IC50 came to 0.82 µM. Also, in “in vivo” (intravenous, 3 mg/kg), the concentration at 0.083 h was determined as 765 ± 64.3 ng/mL, the concentration at 0.25 h turned out to be 397 ± 59.2 ng/mL, the concentration at 0.5 h is 185 ± 13 ng/mL and the concentration at 1 h worked out at 63.3 ± 0.5 ng/mL. Moreover, in “in vivo” (intravenous, 3 mg/kg), the concentration at 3 h turned out to be 21.8 ± 6.1 ng/mL and the concentration at 6 h is 4.3 ± 0.8 ng/mL. In the data set “in vivo” (iv, 3 mg/kg), the total exposure AUC(0-inf) amounted to 440 ng·h/mL, the concentration peaked (Cmax) at 765 ng/mL and the half-life was 1.3 h. The “Mean Red Blood Cell to Plasma Ratio” value in data set [2] is 3.9. Also, in the data set on NCI-H460 (setting [6]), the half-maximal inhibitory concentration (IC50) was 0.22 µM. The IC50 at cdk1/cyclin B was 8 nM.

For `COC(=O)c1ccccc1S(=O)(=O)N1CCC(Nc2nc(N[C@H]3CC[C@H](N)CC3)nc3c2ncn3C2CCCC2)CC1.Cl.Cl` [compound 111, trans-2-{4-[2-(4-Amino-cyclohexylamino)-9-cyclopentyl-9H-purin-6-ylamino]-piperidine-1-sulfonyl}-benzoic acid methyl ester dihydrochloride], the “Mean Red Blood Cell to Plasma Ratio” value in data set [1] is on record as 2.2. The IC50 in the data set on PC-3 (setting [5]) was 0.76 µM. In the data set “in vivo” (iv, 3 mg/kg), this molecule showed an area under the curve AUC(0-inf) of 1460 ng·h/mL, a Cmax of 2450 ng/mL and a half-life of 2 h. Further, in the data set “in vivo” (iv, 18 mg/kg), the concentration at 0.083 h was determined as 2450 ± 287 ng/mL, the concentration at 0.25 h amounted to 1090 ± 129 ng/mL, the concentration at 0.5 h stood at 588 ± 29.3 ng/mL and the concentration at 1 h was 335 ± 81.3 ng/mL. In the data set “in vivo” (iv, 18 mg/kg), the concentration at 3 h came out at 33.8 ± 6.8 ng/mL, the concentration at 6 h amounted to 10.9 ± 3 ng/mL and the concentration at 8 h stood at 6 ± 2 ng/mL. In addition, the “Mean Red Blood Cell to Plasma Ratio” value in data set [2] stood at 1.2. The IC50 in the data set with NCI-H460 (setting [6]) is 0.28 µM. The molecule also showed an IC50 against cdk1/cyclin B of 17 nM.

On to `Cl.Cl.N[C@H]1CC[C@H](Nc2nc(NC3CCN(C(=O)Oc4ccc([N+](=O)[O-])cc4)CC3)c3ncn(C4CCCC4)c3n2)CC1` [compound 89, trans-4-[2-(4-Amino-cyclohexylamino)-9-cyclopentyl-9H-purin-6-ylamino]-piperidine-1-carboxylic acid 4-nitro-phenyl ester dihydrochloride], for which the “Mean Red Blood Cell to Plasma Ratio” value in data set [1] was determined as 4.7. Moreover, the half-inhibitory concentration (IC50) in the data set on PC-3 (setting [3]) was determined as 0.06 µM. In “in vivo” (intravenous, 3 mg/kg), this molecule yielded a concentration at 0.083 h of 642 ± 49.5 ng/mL, a concentration at 0.25 h of 303 ± 34.3 ng/mL, a concentration at 0.5 h of 142 ± 2.7 ng/mL and a concentration at 1 h of 52.4 ± 4.2 ng/mL. In the data set “in vivo” (intravenous, 3 mg/kg), this molecule showed a concentration at 3 h of 17 ± 4.7 ng/mL, a concentration at 6 h of 3.7 ± 1 ng/mL and a concentration at 8 h of 3.8 ± 0.5 ng/mL. Moreover, in “in vivo” (iv, 3 mg/kg), the AUC(0-inf) is 366 ng·h/mL, the peak concentration (Cmax) was determined as 642 ng/mL and the half-life was 1.8 h. For the same molecule, the “Mean Red Blood Cell to Plasma Ratio” value in data set [2] is recorded as 4.2. For the same molecule, the IC50 in the data set with NCI-H460 (setting [4]) is 0.03 µM. For the same molecule, on cdk1/cyclin B, the midpoint of inhibition, the IC50, lay at 20 nM.

For the molecule `COC(=O)c1ccc(OC(=O)N2CCC(Nc3nc(N[C@H]4CC[C@H](N)CC4)nc4c3ncn4C3CCCC3)CC2)cc1.Cl.Cl` [compound 83, trans-4-[2-(4-Amino-cyclohexylamino)-9-cyclopentyl-9H-purin-6-ylamino]-piperidine-1-carboxylic acid 4-methoxycarbonyl-phenyl ester dihydrochloride], the “Mean Red Blood Cell to Plasma Ratio” value in data set [1] is listed as 112.2. The half-maximal inhibitory concentration (IC50) with PC-3 (setting [3]) amounted to 0.15 µM. In “in vivo” (iv, 3 mg/kg), this molecule gave an AUC(0-inf) of 449 ng·h/mL, a Cmax of 1520 ng/mL and a half-life of 0.7 h. Besides, in the data set “in vivo” (iv, 18 mg/kg), the concentration at 0.083 h came to 1520 ± 612 ng/mL, the concentration at 0.25 h was found to be 218 ± 92.8 ng/mL, the concentration at 0.5 h was found to be 61.3 ± 32.9 ng/mL and the concentration at 1 h came to 14.1 ng/mL. In “in vivo” (iv, 18 mg/kg), the concentration at 3 h is 4.1 ng/mL, the concentration at 6 h stood at 1.6 ng/mL and the concentration at 8 h was found to be 6.3 ng/mL. Also, in data set [2], the “Mean Red Blood Cell to Plasma Ratio” value is recorded as 4.1. The IC50 with NCI-H460 (setting [4]) came to 0.07 µM. Inhibition at cdk1/cyclin B was half-maximal at 19 nM (IC50).

As a reminder, the IC50 is the point on the concentration scale where inhibition reaches its midpoint. Broadly, the AUC(0-inf) is the area under the concentration-time curve extrapolated to infinity. Low readings indicate less exposure, high ones more exposure. One may read the Cmax as the highest concentration seen after dosing. Usually half-life stands for the time in which the quantity being followed falls by half. A higher half-life goes with slow decline.

The record behind these values is patent EP1377579B1 (Aventis Pharmaceuticals Inc., priority 2000, dated 2002).
